Results on 37 molecules are retold here after patent publication US8981094B2, “Piperidine/piperazine derivatives” (Janssen Pharmaceutica N.V., priority 2007, dated 2015).

One data set deals with T1, human DGAT1 (Homo sapiens, UniProt O75907).
T1 construct: FLAG (N); made in house; host or cells: SF9 insect cells (pFastBac baculovirus); total cell membranes
T1 sequence (O75907 1-488): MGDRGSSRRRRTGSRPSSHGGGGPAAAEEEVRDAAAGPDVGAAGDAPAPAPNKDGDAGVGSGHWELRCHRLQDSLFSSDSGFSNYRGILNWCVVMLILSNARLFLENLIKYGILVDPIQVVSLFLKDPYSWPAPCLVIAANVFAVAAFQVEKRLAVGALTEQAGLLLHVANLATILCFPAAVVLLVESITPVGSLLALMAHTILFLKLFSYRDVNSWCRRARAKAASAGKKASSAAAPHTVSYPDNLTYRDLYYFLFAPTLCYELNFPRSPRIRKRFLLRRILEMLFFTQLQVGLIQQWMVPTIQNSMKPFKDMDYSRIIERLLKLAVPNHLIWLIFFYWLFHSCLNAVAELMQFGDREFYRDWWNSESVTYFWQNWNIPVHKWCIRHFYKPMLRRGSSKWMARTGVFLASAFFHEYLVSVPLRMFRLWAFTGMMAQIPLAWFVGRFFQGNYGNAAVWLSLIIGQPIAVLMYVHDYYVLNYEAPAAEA
As to the kind of experiment: Inhibition of DGAT1 activity, FlashPlate assay with DGAT1 membrane preparations and substrate micelles. The class given is biochemical. Conditions: pIC50 = -logIC50, IC50 values expressed in M. The method, boiled down:
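FLAG-tagged human DGAT1 membranes (expressed in Sf9 cells) were incubated 120 min at 37° C. in 50 mM Tris-HCl pH 7.4 with 150 mM MgCl2, 1 mM EDTA, 0.2% BSA, 50 μM DAG micelles (PC/PS) and 8.4 μM [^3H]-oleoylCoA. The reaction was stopped with N-ethylmaleimide and read as FlashPlate radioluminescence. Responses were normalized to enzyme/no-enzyme controls to fit dose-response curves.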

Molecule `CC(O)c1cc(Cl)c(NC(=O)N2CCN(c3ccc(NC(=O)CCCc4ccccc4)cc3)CC2)c(Cl)c1` (centres unmarked) [Compound 29] gave a melting point of 187.3 °C. Further, the midpoint of inhibition at human DGAT1, the IC50, lay at 3.98 nM.
With `COc1cc(Cl)c(NC(=O)N2CCN(c3ccc(NC(=O)CNc4ccc(C)cc4C)cc3)CC2)c(Cl)c1` [Compound 31], the melting point was 175 to 176 °C. For the same molecule, at human DGAT1, the IC50 is 4.47 nM.
For `COc1ccc(CNCCC(=O)Nc2ccc(N3CCN(C(=O)Nc4c(Cl)cccc4Cl)CC3)cc2)cc1` [Compound 32], in that order: 188 to 189 °C and 347 nM.
The molecule `O=C(CCCc1ccccc1)Nc1ccc(N2CCN(C(=O)Nc3ccccc3Cl)CC2)cc1` [Compound 34] had a melting point of 142.1 °C. On human DGAT1, this molecule gave an IC50 of 145 nM.
In the case of `O=C(CNCc1ccc(F)cc1)Nc1ccc(N2CCN(C(=O)Nc3c(Cl)cccc3Cl)CC2)cc1` [Compound 35], the melting point worked out at 169.9 °C. For the same molecule, 240 nM corresponded to half-maximal inhibition against human DGAT1 (IC50).
`O=C(CNc1ccc(F)cc1)Nc1ccc(N2CCN(C(=O)Nc3c(Cl)cccc3Cl)CC2)cc1` [Compound 36] returned a melting point of 254.2 °C. Also, the IC50 against human DGAT1 was 87.1 nM.
For `CC1CN(CC(=O)Nc2ccc(N3CCN(C(=O)Nc4c(Cl)cccc4Cl)CC3)cc2)CC(C)O1` (centres unmarked) [Compound 37], in that order: 237.1 °C and 129 nM.
For `Cc1cc(C)cc(N2CCN(CC(=O)Nc3ccc(N4CCN(C(=O)Nc5c(Cl)cccc5Cl)CC4)cc3)CC2)c1` [Compound 41], in that order: 186.1 °C and 77.6 nM.
In turn, `CN(C(=O)CCCc1ccccc1)c1ccc(N2CCN(C(=O)Nc3c(Cl)cccc3Cl)CC2)cc1` [Compound 42] returned a melting point of 175.2 °C. The same molecule gave an IC50 at human DGAT1 of 6920 nM.
For the molecule `COCCOCC(=O)Nc1ccc(N2CCN(C(=O)Nc3c(Cl)cccc3Cl)CC2)cc1` [Compound 45], the melting point came out at 178.7 °C. On human DGAT1, it took 2340 nM to reach half-maximal inhibition (IC50).
As to `O=C(CCCc1ccccc1)Nc1ccc(N2CCN(C(=O)Nc3c(Cl)cc(Br)c4c3CCO4)CC2)cc1` [Compound 46], the melting point stood at 223 °C. This molecule also gave an IC50 on human DGAT1 of 331 nM.
For `O=C(Nc1ccc(N2CCN(C(=O)Nc3c(Cl)cccc3Cl)CC2)cc1)C(O)CCc1ccccc1` (centres unmarked) [Compound 48], in that order: 253.4 °C and 148 nM.
For `O=C(CCCc1ccccc1)Nc1ccc(N2CCN(C(=O)Nc3c(F)cc(Br)cc3F)CC2)cc1` [Compound 49], in that order: 207.9 °C and 120 nM.
For `CCOC(=O)CC(=O)Nc1ccc(N2CCN(C(=O)Nc3c(Cl)cccc3Cl)CC2)cc1` [Compound 50], in that order: 219.9 °C and 95.5 nM.
For `C=CCN(CC(=O)Nc1ccc(N2CCN(C(=O)Nc3c(Cl)cccc3Cl)CC2)cc1)Cc1ccc(F)cc1` [Compound 51], the melting point worked out at 177.8 °C. The same molecule showed an IC50 against human DGAT1 of 18.2 nM.
For `CC(NCCCN(C)C)c1cc(Cl)c(NC(=O)N2CCN(c3ccc(NC(=O)CCCc4ccccc4)cc3)CC2)c(Cl)c1` (centres unmarked) [Compound 54], in that order: 125.4 °C and 23.4 nM.
For `CC(c1cc(Cl)c(NC(=O)N2CCN(c3ccc(NC(=O)CCCc4ccccc4)cc3)CC2)c(Cl)c1)N1CCCCC1` (centres unmarked) [Compound 56], the melting point came out at 218 °C. Moreover, the IC50 against human DGAT1 was 16.2 nM.
In turn, `O=C(CCCc1ccccc1)Nc1ccc(N2CCN(C(=O)Nc3c(Cl)cccc3Cl)CC2)cc1` [Compound 58] yielded a melting point of 114 to 124 °C. For the same molecule, the IC50 against human DGAT1 is 5.37 nM.
For `O=C(CCCc1ccccc1)Nc1ccc(N2CCN(C(=O)Nc3c(Cl)cc(Cl)cc3Cl)CC2)cc1` [Compound 59], in that order: 234.9 °C and 12.9 nM.
Molecule `Cc1cccc(Cl)c1NC(=O)N1CCN(c2ccc(NC(=O)CCCc3ccccc3)cc2)CC1` [Compound 60] had a melting point of 240.7 °C. In addition, the IC50 at human DGAT1 is 12.6 nM.
For `Cc1cc(Br)cc(C)c1NC(=O)N1CCN(c2ccc(NC(=O)CCCc3ccccc3)cc2)CC1` [Compound 61], in that order: 241.7 °C and 38 nM.
For `O=C(CCCc1ccccc1)Nc1ccc(N2CCN(C(=O)Nc3c(Cl)cccc3C(F)(F)F)CC2)cc1` [Compound 62], in that order: 254 °C and 16.2 nM.
For `O=C(CCCc1ccccc1)Nc1ccc(N2CCN(C(=O)Nc3c(F)cc(Br)cc3Br)CC2)cc1` [Compound 63], in that order: 218.6 °C and 30.9 nM.
For the molecule `Cc1cc(C)c(NC(=O)N2CCN(c3ccc(NC(=O)CCCc4ccccc4)cc3)CC2)c(Cl)c1` [Compound 64], the melting point came to 210.6 °C. At human DGAT1, this molecule showed an IC50 of 7.08 nM.
Molecule `Cc1ccc(NC(=O)N2CCN(c3ccc(NC(=O)CCCc4ccccc4)cc3)CC2)c(C)c1` [Compound 66] showed a melting point of 181.7 °C. Moreover, at human DGAT1, the IC50 is 26.9 nM.
`O=C(CCCc1ccccc1)Nc1ccc(N2CCN(C(=O)Nc3c(F)cccc3F)CC2)cc1` [Compound 67] showed a melting point of 187 °C. In addition, the concentration for half-maximal inhibition (IC50) against human DGAT1 is 60.3 nM.
Molecule `Cc1cc(C)c(NC(=O)N2CCN(c3ccc(NC(=O)CCCc4ccccc4)cc3)CC2)c(C)c1` [Compound 68] registered a melting point of 223 °C. Moreover, half-maximal inhibition on human DGAT1 (IC50) required 12.3 nM.
For `COc1ccccc1CNC(=O)N1CCN(c2ccc(NC(=O)CCCc3ccccc3)cc2)CC1` [Compound 71], in that order: 183.1 °C and 1070 nM.
For `O=C(CCCc1ccccc1)Nc1ccc(N2CCN(C(=O)Nc3ccc(F)cc3F)CC2)cc1` [Compound 73], in that order: 141.2 °C and 457 nM.
For `CCCc1ccccc1NC(=O)N1CCN(c2ccc(NC(=O)CCCc3ccccc3)cc2)CC1` [Compound 77], in that order: 200.2 °C and 1660 nM.
With `O=C(CCCc1ccccc1)Nc1ccc(N2CCN(C(=O)Nc3ccccc3I)CC2)cc1` [Compound 78], the melting point stood at 153.3 °C. For the same molecule, the IC50 against human DGAT1 is 126 nM.
As for `CSc1ccccc1NC(=O)N1CCN(c2ccc(NC(=O)CCCc3ccccc3)cc2)CC1` [Compound 79], the melting point stood at 127.1 °C. Also, the IC50 against human DGAT1 is 1450 nM.
For `O=C(CCCc1ccccc1)Nc1ccc(N2CCN(C(=O)Nc3cc(C(F)(F)F)ccc3Cl)CC2)cc1` [Compound 81], in that order: 170.3 °C and 3310 nM.
For `O=C(CCCc1ccccc1)Nc1ccc(N2CCN(C(=O)Nc3c(F)cc(F)cc3F)CC2)cc1` [Compound 82], in that order: 173.6 °C and 75.9 nM.
In the case of `O=C(CCCc1ccccc1)Nc1ccc(N2CCN(C(=O)Nc3ccccc3OC(F)(F)F)CC2)cc1` [Compound 84], the melting point is 162.2 °C. The molecule also had an IC50 against human DGAT1 of 1480 nM.
For `CC(C)(C)CC(C)(C)NC(=O)N1CCN(c2ccc(NC(=O)CCCc3ccccc3)cc2)CC1` [Compound 85], in that order: 202.3 °C and 1950 nM.
`CCC(C)c1ccccc1NC(=O)N1CCN(c2ccc(NC(=O)CCCc3ccccc3)cc2)CC1` (centres unmarked) [Compound 86] returned a melting point of 207.8 °C. Besides, on human DGAT1, the IC50 is 1700 nM.
